Data published in article PMC7824550 (Biomolecules, 2020).
Like-named read-outs stand apart in the source and are kept apart here.

How the values were obtained:
human cathepsin L = biological target: T1, human cathepsin L (Homo sapiens, UniProt P07711); test: Inhibition of cathepsin L, fluorogenic substrate Z-Leu-Arg-AMC; assay type: biochemical; details: for Mechanism of inhibition of cathepsin L / Ki: pH 5.5
T1 construct: made in house

human cathepsin B [1] = biological target: T2, human cathepsin B (Homo sapiens, UniProt P07858); test: Inhibition of cathepsin B, fluorogenic substrate Z-Phe-Arg-AMC; details: for Ki: cathepsin B
[2] = test system: dipeptidyl-peptidase I (DPPI); parameters: method as in PMID 31574257; details: previously characterized; cited from earlier work
human cathepsin B [3] = biological target: T2, human cathepsin B; test: Inhibition of peptidyl-dipeptidase activity of cathepsin B, substrate Abz-Gly-Ile-Val-Arg-Ala-Lys(Dnp)-OH; assay type: biochemical; parameters: made in house; details: pH 5.5, [S] = Km, read-out: IC50, peptidyl-peptidase activity of cathepsin B
Method: In addition, the peptidyl-dipeptidase activity of cathepsin B was measured with the internally quenched fluorigenic substrate Abz-Gly-Ile-Val-Arg-Ala-Lys(Dnp)-OH. Cleavage of this substrate was assessed at λex = 370 nm and λem = 430 nm. […] Nevertheless, appropriate correction of the inner filter effect was performed for all compounds according to the following reference.
For linear (complete) inhibitors, v∞ = 0.

cathepsin K = biological target: T3, cathepsin K (Homo sapiens, UniProt P43235); test: Inhibition of cathepsin K (results not shown); assay type: biochemical; details: confirmed in the authors' laboratory
T3 sequence (P43235 115-329): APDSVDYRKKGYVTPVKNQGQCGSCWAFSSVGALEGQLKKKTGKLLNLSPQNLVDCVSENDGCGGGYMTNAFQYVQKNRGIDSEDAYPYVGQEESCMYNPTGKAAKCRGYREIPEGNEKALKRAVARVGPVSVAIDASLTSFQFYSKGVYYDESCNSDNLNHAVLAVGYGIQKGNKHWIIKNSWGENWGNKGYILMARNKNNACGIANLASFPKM

[4] = Solubility under the experimental conditions used; assay type: physicochemical; details: assay buffer of the cathepsin L inhibition screening, aqueous buffer; under the experimental conditions used (pH 5.5 assay buffer); read-out: Limited solubility
Method: The kinetic characterization of CA, CAPE, and CGA was initially performed under the same conditions as the inhibition screening (pH 5.5). All compounds acted as fast, linear inhibitors of cathepsin L, as observed for DPPI [17]. Kinetic mechanisms and inhibition parameters were determined by a combination of titration curves (plots of the residual enzyme activity (vX/v0) against the inhibitor concentration) and replots of the experimental data as specific velocity plots. The remaining titration curves were collected in Supplementary Figure S1. […] However, a more precise characterization of its effect was made difficult by its limited solubility of only up to about 200 μM under the experimental conditions used.

[5] = catalytic (uncompetitive) inhibition constant, read-out: KCa, cathepsin L
[6] = specific (competitive) inhibition constant, read-out: KSp, cathepsin L
[7] = KCa, pH 5.5, catalytic (uncompetitive) inhibition constant
[8] = KCa, pH 7.4, catalytic (uncompetitive) inhibition constant
[9] = KSp, pH 5.5, specific (competitive) inhibition constant
[10] = KSp, pH 7.4, specific (competitive) inhibition constant

T1 sequence (P07711 114-333): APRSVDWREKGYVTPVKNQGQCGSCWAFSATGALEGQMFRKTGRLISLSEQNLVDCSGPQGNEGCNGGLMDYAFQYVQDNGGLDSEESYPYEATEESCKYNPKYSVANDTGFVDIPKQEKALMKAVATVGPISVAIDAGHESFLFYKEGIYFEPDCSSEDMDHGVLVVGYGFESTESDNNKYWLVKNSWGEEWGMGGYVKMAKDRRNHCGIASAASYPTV

Structure (SMILES)	IC50 (human cathepsin L) [µM]	IC50 (human cathepsin B [1]) [µM]	Mechanism of inhibition of cathepsin L (human cathepsin L)	Ki (human cathepsin L; [5]) [µM]	Ki (human cathepsin L; [6]) [µM]	IC50 (human cathepsin B [3]) [µM]	Ki (human cathepsin B [1]; [7]) [µM]	Ki (human cathepsin B [1]; [8]) [µM]	Ki (human cathepsin B [1]; [9]) [µM]	Ki (human cathepsin B [1]; [10]) [µM]	Mechanism of inhibition of cathepsin B (human cathepsin B [1]; pH 5.5)	Mechanism of inhibition of cathepsin B (human cathepsin B [1]; pH 7.4)	Inhibition of cathepsin K (cathepsin K)	solubility [4] [µM]	Mechanism of inhibition of DPPI [2]
O=C(/C=C/c1ccc(O)c(O)c1)O[C@@H]1C[C@](O)(C(=O)O)C[C@@H](O)[C@H]1O [Chlorogenic acid, chlorogenic acid]	480 ± 20	340 ± 20	Mixed	670 ± 60	330 ± 20	360 ± 60	1200 ± 1100	92 ± 15	340 ± 80	92 ± 15	Mixed	Mixed balanced	–	–	linear catalytic
O=C(O)C=Cc1ccc(O)cc1 [p-Coumaric acid]	> 1000	–	–	–	–	–	–	–	–	–	–	–	–	–	–
O=C(/C=C/c1ccc(O)c(O)c1)OCCc1ccccc1 [Caffeic acid phenethyl ester, caffeic acid phenethyl ester]	190 ± 30	470 ± 30	Mixed	170 ± 30	120 ± 70	100 ± 20	140 ± 10	70 ± 19	–	107 ± 38	Catalytic	Mixed	no inhibition	~200	–
O=C(O)/C=C/c1ccccc1 [Cinnamic acid]	> 1000	> 1000	–	–	–	–	–	–	–	–	–	–	–	–	–

Now from value to compound, other results behind:

IC50 (human cathepsin L) [µM]	IC50 (human cathepsin B [1]) [µM]	Mechanism of inhibition of cathepsin L (human cathepsin L)	Ki (human cathepsin L; [5]) [µM]	Ki (human cathepsin L; [6]) [µM]	IC50 (human cathepsin B [3]) [µM]	Ki (human cathepsin B [1]; [7]) [µM]	Ki (human cathepsin B [1]; [8]) [µM]	Ki (human cathepsin B [1]; [9]) [µM]	Ki (human cathepsin B [1]; [10]) [µM]	Mechanism of inhibition of cathepsin B (human cathepsin B [1]; pH 5.5)	Mechanism of inhibition of cathepsin B (human cathepsin B [1]; pH 7.4)	Inhibition of cathepsin K (cathepsin K)	solubility [4] [µM]	Structure (SMILES)	Mechanism of inhibition of DPPI [2]
> 1000	> 1000	–	–	–	–	–	–	–	–	–	–	–	–	O=C(O)CCc1ccc(O)c(O)c1 [Hydrocaffeic acid, 3-(3,4-Dihydroxyphenyl) propionic acid]	–
> 1000	110 ± 10	Mixed	1270 ± 120	740 ± 70	> 1000	82 ± 16	46 ± 4	270 ± 140	–	–	Catalytic	no inhibition	–	O=C(O)C=Cc1ccc(O)c(O)c1 [Caffeic acid, 3,4-dihydroxycinnamic acid]	linear, mixed balanced
930 ± 150	910 ± 30	–	–	–	–	–	–	–	–	–	–	–	–	O=C(O)C=Cc1ccc(O)cc1O [2,4-Dihydroxy-cinnamic acid, 2,4-dihydroxycinnamic acid]	–
> 1000	> 1000	–	–	–	–	–	–	–	–	–	–	–	–	O=C(O)/C=C/c1ccccc1O [o-Coumaric acid]	–
